According to ChEMBL document CHEMBL4371020, “Synthesis and biological evaluation of 1H-pyrrolo[2,3-d]pyrimidine-1,2,3-triazole derivatives as novel anti-tubercular agents” (2019):
≈ marks a conversion by molar mass, not a printed value.

System: Mycobacterium tuberculosis
Experiment: Antimicrobial activity against Mycobacterium tuberculosis H37Rv after 7 days by microplate alamar blue assay
Format: functional
Conditions: 168 h

Question: For `CO[C@H]1/C=C/O[C@@]2(C)Oc3c(C)c(O)c4c(O)c(c(/C=N/N5CCN(C)CC5)c(O)c4c3C2=O)NC(=O)/C(C)=C\C=C\[C@H](C)[C@H](O)[C@@H](C)[C@@H](O)[C@@H](C)[C@H](OC(C)=O)[C@@H]1C` [RIFAMPIN], which MIC is on record?
Answer: The MIC was 0.2 µg/mL (≈ 0.243 µM).

Question: Which MIC does the source give for `Clc1ccc(Cn2cc(Cn3ccc4cncnc43)nn2)cc1` here?
Answer: Its MIC is 3.12 µg/mL (≈ 9.61 µM).

Question: With `CCOC(=O)/C=C/Cn1cc(Cn2ccc3cncnc32)nn1` as the compound, how does the MIC read?
Answer: The MIC was over 25 µg/mL.

Question: Which MIC does the source give for `Clc1ccc(-n2cc(Cn3ccc4cncnc43)nn2)cc1` here?
Answer: Its MIC is 25 µg/mL (≈ 80.5 µM).

Question: `c1ccc(-c2cc(Cn3cc(Cn4ccc5cncnc54)nn3)cc(-c3ccccc3)n2)cc1` was tested. Which MIC did it give?
Answer: The MIC was 6.25 µg/mL (≈ 14.1 µM).

Question: For `Oc1ccccc1-n1cc(Cn2ccc3cncnc32)nn1`, which MIC is on record?
Answer: Its MIC is 6.25 µg/mL (≈ 21.4 µM).

Question: For `O=c1oc2ccccc2cc1-n1cc(Cn2ccc3cncnc32)nn1`, which MIC is on record?
Answer: The MIC was 3.12 µg/mL (≈ 9.06 µM).

Question: How did the MIC turn out when `CC[C@@H](CO)NCCN[C@@H](CC)CO` [ETHAMBUTOL] was run?
Answer: Its MIC is 1.56 µg/mL (≈ 7.64 µM).

Question: `COc1ccc(Cn2cc(Cn3ccc4cncnc43)nn2)cc1` was tested. Which MIC did it give?
Answer: Its MIC is over 25 µg/mL.

Question: `O=[N+]([O-])c1ccc(-n2cc(Cn3ccc4cncnc43)nn2)cc1` was tested. Which MIC did it give?
Answer: The MIC was over 25 µg/mL.

Question: With `COC(=O)CCn1cc(Cn2ccc3cncnc32)nn1` as the compound, how does the MIC read?
Answer: Its MIC is 1.56 µg/mL (≈ 5.45 µM).

Question: With `Clc1ccc(Oc2ccccc2)cc1-n1cc(Cn2ccc3cncnc32)nn1` as the compound, how does the MIC read?
Answer: The MIC was 6.25 µg/mL (≈ 15.5 µM).

Question: With `Fc1cccc(-n2cc(Cn3ccc4cncnc43)nn2)c1` as the compound, how does the MIC read?
Answer: The MIC was over 25 µg/mL.

Question: With `O=[N+]([O-])c1ccc(Cn2cc(Cn3ccc4cncnc43)nn2)cc1` as the compound, how does the MIC read?
Answer: Its MIC is over 25 µg/mL.

Question: With `Fc1ccc(Cn2cc(Cn3ccc4cncnc43)nn2)cc1` as the compound, how does the MIC read?
Answer: The MIC was over 25 µg/mL.

Question: With `C=CCn1cc(Cn2ccc3cncnc32)nn1` as the compound, how does the MIC read?
Answer: Its MIC is 6.25 µg/mL (≈ 26 µM).

Question: Which MIC does the source give for `c1ccc(-c2cc(Cn3cc(Cn4ccc5cncnc54)nn3)on2)cc1` here?
Answer: Its MIC is 0.78 µg/mL (≈ 2.18 µM).

Question: For `NNC(=O)c1ccncc1` [ISONIAZID], which MIC is on record?
Answer: The MIC was 0.1 µg/mL (≈ 0.729 µM).

Question: How did the MIC turn out when `Fc1ccc(Oc2ccc(Cn3cc(Cn4ccc5cncnc54)nn3)cc2)cc1` was run?
Answer: Its MIC is 3.12 µg/mL (≈ 7.79 µM).

Question: For `Fc1ccc(-c2cc(Cn3cc(Cn4ccc5cncnc54)nn3)on2)cc1`, which MIC is on record?
Answer: The MIC was 0.78 µg/mL (≈ 2.08 µM).

Question: With `Brc1ccc(Cn2cc(Cn3ccc4cncnc43)nn2)cc1` as the compound, how does the MIC read?
Answer: Its MIC is over 25 µg/mL.

Question: Which MIC does the source give for `Cc1onc(-c2ccccc2)c1Cn1cc(Cn2ccc3cncnc32)nn1` here?
Answer: Its MIC is 6.25 µg/mL (≈ 16.8 µM).

Question: How did the MIC turn out when `Brc1ccccc1Cn1cc(Cn2ccc3cncnc32)nn1` was run?
Answer: The MIC was over 25 µg/mL.

Question: Which MIC does the source give for `O=C(O)c1cn(C2CC2)c2cc(N3CCNCC3)c(F)cc2c1=O` [CIPROFLOXACIN] here?
Answer: Its MIC is 1.56 µg/mL (≈ 4.71 µM).

Question: Which MIC does the source give for `c1ccc(Sc2ccccc2-n2cc(Cn3ccc4cncnc43)nn2)cc1` here?
Answer: The MIC was 6.25 µg/mL (≈ 16.3 µM).

Question: With `c1ccc(Cn2cc(Cn3ccc4cncnc43)nn2)cc1` as the compound, how does the MIC read?
Answer: Its MIC is over 25 µg/mL.

Question: For `COc1cccc(-n2cc(Cn3ccc4cncnc43)nn2)c1[N+](=O)[O-]`, which MIC is on record?
Answer: The MIC was 25 µg/mL (≈ 71.2 µM).

Question: `Fc1ccccc1Cn1cc(Cn2ccc3cncnc32)nn1` was tested. Which MIC did it give?
Answer: The MIC was over 25 µg/mL.
